What all share (assay): growth of human tumour cells (NCI), 48 h
Test [1] deals with T47D.
The test system of test [2] is LXFL 529.
Test [3] relates to DMS-273.
Test [4] concerns DMS-114.
In test [5] the test system is M19-MEL.
In test [6] the test system is DLD-1.
Test [7] relates to HOP-18.
Test [8] deals with XF498.

Values joined by “and” are separate entries in the source; they are usually repeats but may differ in a detail not shown here. Equal entries are not always repeated.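 Briefly, cells in 96-well plates were exposed to five compound concentrations for 48 h, and endpoints were estimated by linear interpolation. Abbreviation: GI50, concentration required for 50% inhibition of growth.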 Active and inactive are the calls of the source. Rule as the data show it: active = GI50 up to about 1.1 µM and inactive = higher. Starred links: 1 amine or outer side, 2 acyl side, 3 side chain; linkers in the order of their positions; H or OH if unused. Non-standard residues stand in square brackets, D forms with d. Residues, ends and D or L forms follow the SMILES beside them. X4 = C[C@H](N[*:1])C(=O)C(C)(C)C(=O)[*:2]; Hmpa(2S,3S) = CC[C@H](C)[C@H](O)C(=O)O; NMeY = CN[C@@H](Cc1ccc(O)cc1)C(=O)O; NMeL = CN[C@@H](CC(C)C)C(=O)O; NMeV = CN[C@H](C(=O)O)C(C)C; βAla = NCCC(=O)O Where only a bound is given, the exact number is not on record here.

For the molecule `Cc1nc2ccccc2c(=O)n1NC(=O)c1ccc([N+](=O)[O-])cc1`, the GI50 in test [1] was > 100 µM (inactive).

`O=C(O)CCC(=O)Nc1ccc2ccccc2c1`: the GI50 in test [1] was > 100 µM (inactive).

Regarding `COc1ccc(-n2c(=O)c3nc(S)[nH]c3n(-c3ccc(OC)cc3)c2=S)cc1`, the GI50 in test [1] is > 100 µM (inactive).

With `Cc1cc2ncn(CC(=O)O)c2cc1C`, the GI50 in test [1] was > 100 µM (inactive).

With `CC(=O)C1C(=O)C(C(C)=O)C2C3C=CC(C3)C12` (stereo not drawn), the GI50 in test [1] is > 100 µM (inactive).

On to `O=C1C=C/C(=N\c2ccc3c(c2)C(Br)c2ccccc2-3)O1` (stereo not drawn), for which the GI50 is 28.8 µM (inactive) in test [2]; > 10 µM (inactive) in test [3]; 92.7 µM (inactive) in test [4]; > 100 µM (inactive) in test [5]; > 100 µM (inactive) in test [6].

In the case of `CN1CCOC(C(NC(=O)c2ccccc2)c2ccccc2)C1=O` (stereo not drawn), the GI50 in test [3], in test [7], in test [5] and in test [6] was > 100 µM (inactive) in each case.

As to `CC1(C)Cc2cc(C(=O)O)c3c(c2C1=O)COCC3`, the GI50 in test [8], in test [2], in test [3], in test [7], in test [4] and in test [5] was > 100 µM (inactive) throughout. Further, the GI50 in test [6] is > 100 µM (inactive).

For the molecule `O=C(NC1CCCCCC1)C1C(=O)N(C2CCCCCC2)C(=O)/C1=N\O` (stereo not drawn), the GI50 is 31.8 µM (inactive) in test [2]; 48.9 µM (inactive) in test [7]; 33 µM (inactive) in test [4]; 28.2 µM (inactive) in test [5]; 44.1 µM (inactive) in test [6].

Regarding `NCP(=O)(O)OCC(=O)O`, the GI50 in test [8], in test [2], in test [3], in test [7], in test [4] and in test [6] was > 100 µM (inactive) throughout.

Consider `COc1ccc(NC(=S)c2ccoc2C)cc1CC(=O)OC(C)C`, for which the GI50 in test [1] is 24.8 µM (inactive).

For `COC(=O)c1c(C(=O)OC)c2ccccn2c1-c1cc(C)cc2c1C(=O)C=CC2=O`, the GI50 in test [1] was 4.21 µM (inactive).

`Cc1c2c(OCC3CCCCO3)nn(C)c(=O)c2c(C)n1-c1ccccc1` (stereo not drawn): the GI50 in test [1] is 22.1 µM (inactive).

On to `COc1cc(OC)c(/C=C/c2cnc3ccccc3n2)c(OC)c1`, for which, in test [1], the GI50 is > 10 µM (inactive).

As to `Cc1ccccc1-n1c(=O)nc2n(-c3ccc(C(C)(C)C)cc3)c3ccccc3cc-2c1=O`, the GI50 in test [1] was 26.2 µM (inactive).

On to `Brc1ccc2[nH]cc(-c3nc(-c4c[nH]c5ccccc45)cs3)c2c1`, for which the GI50 in test [1] was 3.68 µM (inactive).

On to `COC(=O)C1c2cc3c(cc2C(OC2OC(C)C(OC)C(C)(OC)C2OC)CC1(C)O)C(=O)c1c(O)cc2c(c1C3=O)OC1OC2(C)C(O)C([N+](C)(C)[O-])C1O` (stereo not drawn), for which, in test [1], the GI50 was 0.13 µM (active).

As to `[N-]=[N+]=Nc1ccccc1C(=O)N1C(=O)c2ccccc2C(=O)N(C(=O)c2ccccc2N=[N+]=[N-])c2ccccc21`, in test [1], the GI50 was 23.1 µM (inactive).

Consider `O=C(CN1CCOCC1)CC(O)(C(F)(F)F)C(F)(F)F`, for which the GI50 in test [1] is 42.4 µM (inactive).

As for `CN(C)CC1CCCC(CN(C)C)C1OC(=O)c1ccccc1` (stereo not drawn), the GI50 in test [2], in test [3], in test [7], in test [5] and in test [6] was > 100 µM (inactive) throughout.

Take `CC(=O)/C(=C\NC(N)=S)C(=O)Nc1ccccc1C`: in test [1], the GI50 was > 100 µM (inactive).

For `COc1cc(C2C3=C(COC3=O)Oc3cc4c(cc32)OCO4)ccc1OC(C)=O` (stereo not drawn), the GI50 in test [1] was 0.565 µM (active).

Take `O=C(O)CSc1cc(-c2ccccc2)nc2ccccc12`: the GI50 in test [1] is 57.9 µM (inactive).

For the molecule `COc1cc2ccc1OCc1cccc(n1)COc1ccc(cc1OC)/C=N\c1ccc(cc1)-c1ccc(cc1)/N=C\2`, the GI50 in test [1] was > 100 µM (inactive).

`CCc1ccc2oc(-c3cc(O)c(-c4nc5cc(CC)ccc5o4)cc3O)nc2c1`: the GI50 in test [1] is > 100 µM (inactive).

On to `CCOC(=O)C(NC(=O)c1cccc(Cl)c1)(Nc1cccc(C)c1)C(F)(F)F` (stereo not drawn), for which the GI50 in test [1] is 19 µM (inactive).

Consider `COc1ccccc1/C=C(/C)[N+](=O)[O-]`, for which, in test [1], the GI50 is 1.44 µM (inactive) and 1.04 µM (active).

As for `C=C1C(=O)O[C@H]2[C@H](OC(C)=O)[C@@H](C)CCC/C(C)=C/CC[C@@]3(C)O[C@@H]3C[C@@H]12`, the GI50 in test [1] was 1.6 µM (inactive).

As for `O=C(O)CCN1CCN(CCC(=O)O)CCN(CCC(=O)O)CC1`, the GI50 in test [1] is > 100 µM (inactive).

Turning to `O=c1c2cc(-c3ccccc3)cnc2sn1-c1ccc(Oc2ccccc2)cc1`, in test [1], the GI50 is 63 µM (inactive).

Take `COc1ccc(/C=C2\CC3C4CC=C5C[C@@H](N6CCCC6)CC[C@]5(C)C4CC[C@]3(C)[C@H]2O)cc1OC` (stereo partly drawn): in test [1], the GI50 is 12.2 µM (inactive).

On to `N#Cc1nnn(C2CCCCC2)c1O`, for which, in test [1], the GI50 is > 100 µM (inactive).

Take `ClCCN1CCO/C1=N/c1ccc2c(c1)CCCC2`: the GI50 in test [1] was 8.51 µM (inactive).

Consider `CCn1c2c(c3ccccc31)C(c1ccccc1)CC1C(=O)N(c3ccccc3)C(=O)C21` (stereo not drawn), for which the GI50 is 15.8 µM (inactive) in test [8]; 42.8 µM (inactive) in test [2]; 51.4 µM (inactive) in test [3]; 89.5 µM (inactive) in test [4]; > 100 µM (inactive) in test [5]; 74 µM (inactive) in test [6].

`Cc1c(C#N)c(=N)oc2ccccc12`: the GI50 in test [1] was 75.7 µM (inactive).

For the molecule `CC(C)(C)C1=C(Br)C(F)(C(C)(C)C)OP1(=O)c1ccccc1` (stereo not drawn), in test [1], the GI50 was 15.9 µM (inactive).

For `COC(=O)c1cc2c(c3c1CC(Cc1ccccc1)C3=O)CCC2` (stereo not drawn), the GI50 in test [1] is 25.5 µM (inactive).

Take `CC(=O)O/N=C(Cl)/C(Cl)=N/OC(C)=O`: the GI50 in test [8], in test [2], in test [3], in test [7], in test [4] and in test [6] was > 100 µM (inactive) throughout.

`Cc1cccc(N2CCN(S(=O)(=O)c3ccc(Cl)cc3)C2=N)c1C`: the GI50 in test [1] is > 100 µM (inactive).

On to `c1ccc(-c2cc(-c3ccccc3)nc(-c3ccncc3)c2)cc1`, for which the GI50 in test [1] is > 100 µM (inactive).

Regarding `[N-]=[N+]=CC(=O)OC1Cc2ccccc2C1`, the GI50 in test [1] was > 100 µM (inactive).

Take `COc1ccc(/N=N/C(=O)NC(CC(C)C)C(=O)NCC(=O)O)cc1` (stereo not drawn): in test [1], the GI50 is 3.03 µM (inactive).

For `C1=C2C3=[N+](CCCC3)CC2Cc2ccsc21` (stereo not drawn), the GI50 in test [1] is 22.8 µM (inactive).

`CC(C)=CCC[C@@H](C)C1=C(O)C(=O)C(C)=C(c2c(I)c(=O)n(C)c(=O)n2C)C1=O`: the GI50 in test [1] is > 100 µM (inactive).

With `CC(C)(C)C(=O)Nc1c(C=O)ccc2[nH]cnc12`, the GI50 in test [1] is > 100 µM (inactive).

Consider `CN1C(=O)c2ccccc2NC(=O)C12O[C@@H]2c1cccc(O)c1` (stereo partly drawn), for which, in test [1], the GI50 was > 100 µM (inactive).

On to `C1C2CC3CC1CC(Nc1nc(NC45CC6CC(CC(C6)C4)C5)nc(NC45CC6CC(CC(C6)C4)C5)n1)(C2)C3`, for which the GI50 in test [1] was 72.1 µM (inactive).

`Cc1cccc2c1CC1(C2)Cc2c(C)cccc2C1=O` (stereo not drawn): in test [1], the GI50 was 44.8 µM (inactive).

As to `COc1ccccc1/C=C1\C(=O)N(C(=O)c2ccc(NC(C)=O)cc2)N=C1C`, the GI50 in test [8], in test [3], in test [4], in test [5] and in test [6] was > 100 µM (inactive) in each case.

For `CC(C)(C)c1cc(CCCCCCCC2(CCCCCCCc3cc(C(C)(C)C)cc(C(C)(C)C)c3)OC(COCCOCCCCCC#N)C(COCCOCCCCCC#N)O2)cc(C(C)(C)C)c1` (stereo not drawn), the GI50 in test [2], in test [3], in test [7], in test [4], in test [5] and in test [6] was > 100 µM (inactive) in each case.

For the molecule `CCOC(=O)/C=C(/C(=O)OCC)n1cc(C)c(=O)n(Cc2cnnn2CCCCOC(C)=O)c1=O`, in test [1], the GI50 was 24 µM (inactive).

As for `COC(=O)[C@H](Cc1c[nH]c2ccccc12)NP(=O)(O)OC[C@H]1O[C@@H](n2cc(C)c(=O)[nH]c2=O)C[C@@H]1N=[N+]=[N-]`, the GI50 in test [1] is > 100 µM (inactive).

On to `O=c1oc2cc(O)ccc2c2[nH]c3cc(O)ccc3c12`, for which the GI50 in test [8] was 25.5 µM (inactive); in test [2], 27.1 µM (inactive); in test [3], 21.6 µM (inactive); in test [7] it was 50.5 µM (inactive); in test [4], 21.1 µM (inactive); in test [5], 27.9 µM (inactive). Besides, in test [6], the GI50 is 30.2 µM (inactive).

Consider `CC1=NN(C(=O)c2ccccc2O)C(=O)/C1=C/c1ccco1`, for which the GI50 in test [8] was 25.8 µM (inactive); in test [2] it was 1.54 µM (inactive); in test [1], > 100 µM (inactive); in test [4] it was 0.604 µM (active); in test [5], 1.88 µM (inactive); in test [6] it was 0.502 µM (active).

With `CN(C)c1ccc(/C=C/c2nc3ccccc3s2)cc1`, in test [1], the GI50 is > 100 µM (inactive).

Take `COc1cc(OC)c2c(=O)cc(-c3ccc(OC)c(OC)c3OC)oc2c1`: the GI50 in test [8] is > 100 µM (inactive); in test [2] it was 89.5 µM (inactive); in test [4], > 100 µM (inactive); in test [5], > 100 µM (inactive); in test [6], > 100 µM (inactive).

For the molecule `CC[C@H](C)[C@@H]1OC(=O)CCNC(=O)[C@@H](C)NC(=O)C(C)(C)C(=O)[C@H](C)NC(=O)[C@H](Cc2ccc(OC)cc2)N(C)C(=O)[C@H](C(C)C)N(C)C(=O)CNC(=O)[C@H](CC(C)C)N(C)C(=O)CNC1=O` (cyclo(G[NMeL]G[NMeV][NMeY](Me)[X4][dA][βAla][Hmpa(2S,3S)])), in test [1], the GI50 is 2.19 µM (inactive).

On to `COc1cc(Cn2c3ccccc3c3cc(C)c4c(c32)C=CC(C)(CCC=C(C)C)O4)cc2c1[nH]c1ccccc12` (stereo not drawn) [CHRESTFOLINE C], for which the GI50 in test [2] was 88.5 µM (inactive); in test [3], > 100 µM (inactive); in test [7], > 100 µM (inactive); in test [4], > 100 µM (inactive); in test [5], > 100 µM (inactive); in test [6], > 100 µM (inactive).
